Source: US7071168B2, “Anti-cancer compounds and methods related thereto” (The Regents of the University of Colorado, priority 1998, dated 2006)

How the values were obtained:
[1] = test system: SCLC strain SHP-77; assay: Colorimetric tetrazolium (MTT) assay for cell survival, SCLC strain SHP-77; type: cell-based, human
Method: In general, Anti-bradykinin activity was determined by the classical guinea pig ileum assay and on Chinese hamster ovary (CHO) cells expressing cloned human bradykinin B2 receptors. Anti-tumor activity was determined on cultured human cancer cell lines using the standard tetrazolium (MTT) assay.
Cell growth and survival were measured by a rapid colorimetric assay based on the tetrazolium salt MTT (3-(4,5-dimethylthiazol-2-yl)-2,5-diphenyl tetrazolium bromide) (Mosmann, J Immunol. Methods 65: 55–63, 1983, with minor modifications). Briefly, 1,000 normal lung fibroblasts or normal epithelial BEAS-2B cells, 1,000 or 5,000 viable non-SCLC cells or 10,000 viable SCLC cells were plated in 100 μL of growth medium in 96-well flat-bottomed microtiter plates. Cells were incubated overnight to allow recovery. Compounds to be tested were added to the cells in triplicate in a range of concentrations and the cells were incubated at 37° C., 5% CO2, with 100% humidity. Control cells were treated in the same way without antagonists. […] Plates were incubated for 4 days, allowing sufficient time for cell replication and compound-induced cell death to occur. On day 5, 25 μL of a 2 mg/mL solution of MTT (Sigma) dissolved in RMPI-1640was added to each well. The plate was incubated for 4 h at 37° C. The supernate was removed and the blue formazan complex was dissolved by adding 100 μL of 0.02 N HCl in 75% isopropanol to all wells. Absorbance was immediately determined using a scanning multiwell plate reader. B9870 caused 50% cell death at a concentration of 0.15 μM under these conditions.

[2] = test system: bradykinin response of isolated guinea pig ileum; assay: Anti-bradykinin activity on isolated guinea pig ileum
In short: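 Bradykinin concentration-effect curves were run in the absence and presence of compound. Tissue: 25 mm terminal ileum from male Hartley guinea pigs fasted overnight, held at 1 g tension in O2/CO2-bubbled Krebs' solution after 1 h equilibration.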

[3] = isolated guinea pig ileum, pD2 of bradykinin is 7.4, higher numbers indicate higher potency
[4] = Table 1, higher numbers indicate higher potency

Compound | MTT: ED50 for killing of SCLC strain SHP-77 in vitro ([1]; Table 1, SHP-77, MTT, 4 days) | GPI: pA2 for bradykinin antagonist activity on isolated guinea pig ileum [2, 4] | other results
CC1(C)CC(NC(=O)C(Cc2cccc3ccccc23)NC(=O)C=Cc2ccc(NC(=O)CCCCCCCCCCC(=O)Nc3ccc(C=CC(=O)NC(Cc4cccc5ccccc45)C(=O)NC4CC(C)(C)NC(C)(C)C4)cc3)cc2)CC(C)(C)N1 (stereo not drawn) [M616] | – | – | MTT: ED50 for killing of SCLC strain SHP-77 in vitro ([1]; SCLC strain SHP-77 in vitro): 1.4 µM; GPI: pA2 for bradykinin antagonist activity on isolated guinea pig ileum [2, 3]: 5.4
DTP-(DArg-Arg-Eac-Ser-DF5F-Nc7G-Arg)2 [M1026] | 70 µM | 6.9 | –
F5c-DArg-Arg-Eac-Ser-DF5F-Oic-Arg [M796] | 31 µM | 6.5 | –
DDD-(DArg-Arg-Aud-Ser-DF5F-Oic-Arg)2 [M890] | 1.7 µM | 5.5 | –
TDIM-(DArg-Arg-Pro-Hyp-Gly-Thi-Ser-DIgl-Oic-Arg)2 [B10104-2] | 4 µM | 8.0 | –
DDD-(DArg-Arg-Aud-DF5F-Oic-Arg)2 [M846] | 2 µM | 7.1 | –
(Gun)2-BApG-DArg-Arg-Pro-Hyp-Gly-Igl-Ser-DIgl-Oic-Arg [B10092] | >20 µM | 8.7 | –
c[DArg-Arg-Eac-Ser-DF5F-Oic-Arg] [M872] | – | – | MTT: ED50 for killing of SCLC strain SHP-77 in vitro ([1]; Table 3, cyclic peptides): 2.2 µM; GPI: pA2 for bradykinin antagonist activity on isolated guinea pig ileum ([2]; Table 3, cyclic peptides): Inact
CC1(C)CC(NC(=O)[C@H](Cc2ccc3ccccc3c2)NC(=N)CCCCCCCCCCCCC(=N)N[C@@H](Cc2ccc3ccccc3c2)C(=O)NC2CC(C)(C)NC(C)(C)C2)CC(C)(C)N1 [M254-2] | – | – | MTT: ED50 for killing of SCLC strain SHP-77 in vitro ([1]; SCLC strain SHP-77 in vitro): 5 µM; GPI: pA2 for bradykinin antagonist activity on isolated guinea pig ileum [2, 3]: 5.8
O=C(NC1CN2CCC1CC2)C(Cc1ccc2ccccc2c1)NC(=NC1CCCCC1)NC1CCCCC1 (stereo not drawn) [M18] | – | – | MTT: ED50 for killing of SCLC strain SHP-77 in vitro ([1]; SCLC strain SHP-77 in vitro): 30 µM; GPI: pA2 for bradykinin antagonist activity on isolated guinea pig ileum [2, 3]: 6.6
Leu-DTrp-Phe-DTrp-DNMF-Eac2-DArg-Arg-Pro-Hyp-Gly-Igl-Ser-DIgl-Oic-Arg [B10160] | 10 µM | 6.3 | –
EGS-(DArg-Arg-Pro-Hyp-Gly-Igl-Ser-DIgl-Oic-Arg)2 [B10252] | 25 µM | 8.3 | –
Ppa-hPhe-Arg [M708] | Inact | 5.8 | –
CC1(C)CC(NC(=O)C(Cc2ccc(OCc3ccccc3)cc2)NC(=O)C=Cc2c(F)c(F)c(F)c(F)c2F)CC(C)(C)N1 (stereo not drawn) [M318] | – | – | MTT: ED50 for killing of SCLC strain SHP-77 in vitro ([1]; SCLC strain SHP-77 in vitro): 3.6 µM; GPI: pA2 for bradykinin antagonist activity on isolated guinea pig ileum [2, 3]: 5.1
F5c-PFF-Arg [M718] | 9 µM | 5.1 | –
F5c-DArg-Eac-2Nal-Arg [M696] | Inact | 5.1 | –
Moti-DArg-Arg-Pro-Hyp-Gly-Thi-Ser-DIgl-Oic-Arg [B10104-3] | 20 µM | 8.1 | –
DDD-( DArg-Arg-Add-Ser-DIgl-Oic-Arg)2 [M862] | 1.3 µM | 5.6 | –
DDD-(DArg-Arg-Aud-Pac-PaF(Fbz)-Arg)2 [M734] | 1.8 µM | 5.3 | –
CC1(C)CC(NC(=O)C(Cc2ccc3ccccc3c2)NC(=O)c2nc(Cl)c(Cl)c(N)c2Cl)CC(C)(C)N1 (stereo not drawn) [M302] | – | – | MTT: ED50 for killing of SCLC strain SHP-77 in vitro ([1]; SCLC strain SHP-77 in vitro): 3.5 µM; GPI: pA2 for bradykinin antagonist activity on isolated guinea pig ileum [2, 3]: 5.2
(Dns-DArg-Igl-Arg)2-DDA [M678] | – | – | MTT: ED50 for killing of SCLC strain SHP-77 in vitro ([1]; SCLC strain SHP-77 in vitro): 1.1 µM; GPI: pA2 for bradykinin antagonist activity on isolated guinea pig ileum [2, 3]: 5.3
